Key:
[1] = type: physicochemical
Experimental: The three compounds meta nitro DKB, para nitro DKB, and BBP are dissolved at 250 mM in a Tris HCl 10 mM, pH 7.5, and 10% Trehalose solution. The solutions are lyophilized overnight in aliquots of 50 nmol. The dry products are then stored at 4° C. At regular intervals these aliquots are dissolved in methanol and 15 μl of these solutions are injected in HPLC (Waters) in order to measure the degradation of the principal product by integration of all of the peaks in the chromatogram (PDA Max Plot in the Empower software).

[2] = Accelerated stability in liquid medium (125 mM in 96/4 DMSO/methanol, ambient temperature), HPLC purity; type: physicochemical; conditions: 22° C., at 10 days
Experimental: For this purpose, an accelerated stability study is carried out under extreme conditions, in which the compounds are stored at 125 mM in a 96/4 DMSO/methanol mixture at ambient temperature (22° C.+/−1° C.). Note that these are extreme storage conditions.
The three compounds meta nitro DKB, para nitro DKB, and BBP, which are clearly shown in FIG. 10, are dissolved at 125 mM in a 96/4 DMSO/methanol mixture and are stored at ambient temperature (22° C. plus or minus 1° C.). At regular intervals subsequently, 2 μl of these solutions are injected in HPLC (basic method, Waters HPLC system) in order to measure the degradation of the principal product by integrating all of the peaks in the chromatogram (PDA Max Plot in the Empower 2 software).

In the case of [Bio-EG3]2-PDAM [BBP], the “stability in dry form” value [1] is reported as “does not withstand lyophilization”, the breakdown during lyophilization ([1]; Tris HCl 10 mM pH 7.5, 10% Trehalose, lyophilized overnight) is reported as over 60% and the “purity of the initial compound (HPLC)” value [2] is reported as under 10%.

From patent US20100136538A1, “MARKING REAGENTS BEARING DIAZO AND NITRO FUNCTIONS, METHODS FOR THE SYNTHESIS OF SUCH REAGENTS AND METHODS FOR DETECTING BIOLOGICAL MOLECULES” (Biomerieux, priority 2007, published 2010)
